The results in this text go back to US20120059021A1, “COMPOSITIONS AND METHODS FOR TREATING CANCER AND METHODS FOR PREDICTING A RESPONSE TO SUCH TREATMENTS” (UNIVERSITY OF WASHINGTON, priority 2008, published 2012).

Experiment [1] relates to human epidermal melanocytes (HEM). Nature of the experiment: qPCR of endogenous Wnt target gene AXIN2, human epidermal melanocytes (HEM). Format: cell-based. The following applies: WNT3A CM, 2 μM PLX4720, 24 hours. The text has this: (§1) RNA purification and qRT-PCR analysis. RNA was purified using the RNeasy kit following the manufacturer's protocol (Qiagen; Maryland, Md.). cDNA was synthesized using RevertAid™ M-MuLV Reverse Transcriptase (Fermentas; Ontario, CAN). Light Cycler FastStart DNA Master SYBR Green1 (Roche; Mannheim, Germany) was used for real-time PCR as previously described (53). Quantitative PCR results presented in the manuscript are averages of a minimum of three biologic replicates.
(Quantitative PCR measures a nucleic acid by following its amplification.)

Another experiment deals with A375. Briefly: qPCR of endogenous Wnt target gene AXIN2, A375. Format: cell-based, human. The following applies: A375; WNT3A CM, 2 μM PLX4720, 24 hours.
Excerpt: as §1

In a further experiment the test system is AXIN1. Nature of the experiment: Immunoblot of steady-state AXIN1 levels in melanoma cells. It counts as cell-based, human. (In general: A western blot detects proteins with antibodies after separation by electrophoresis.)
For the next experiment, the system named is SKMEL28. Briefly: Flow cytometry for active (cleaved) caspase-3, SKMEL28. Format: cell-based, human. The following applies: 2 uM PLX4720, 24 hours, in % (unit assumed). How it is done: (§2) Flow cytometry for Active Caspase-3. Cells were seeded in a 6-well dish at a density to achieve 90-100% confluence at harvest. 24 hours after seeding, cells were treated with the indicated conditions for the indicated amount of time. At the time of collection, supernatants were collected and pooled with trypsinized cells. Cells were fixed with 4% paraformaldehyde and permeabilized according to vendor's protocol for Cleaved Caspase-3 (Asp175) Antibody (AlexaFluor 488 Conjugate) (catalog #9669) (Cell Signaling, Beverly Mass.). The antibody was used at a final dilution of 1:100. Flow was performed on a BD FACSCanto H, and data analysed with FlowJo 8.8.6 (Tree Star) software. Experiments were performed with biological triplicates and data are representative of at least three independent experiments.
For experiments involving siRNAs, cells were reverse transfected with 20 nM siRNA in 6-well dishes in triplicate with RNAiMax according to manufacturer's protocol. 48 hours following transfection, cells were treated with the indicated conditions for 24 hours and then harvested for analysis. Cells were harvested, stained, and analyzed as described above.

Experiment [2] has as its system β-catenin. Briefly: Immunoblot for β-catenin phosphorylation at Ser33/Ser37/Thr41 in A375 cells. Format: cell-based, human.
In the next experiment the test system is COLO829. Briefly: Flow cytometry for active (cleaved) caspase-3, COLO829. It counts as cell-based, human. To be noted: WNT3A, 2 μM PLX4720, 24 hours. As to the method:
as §2, with “experiments. For experiments involving siRNAs, cells were reverse transfected with 20 nM siRNA in 6-well dishes in triplicate with RNAiMax according to manufacturer's protocol. 48 hours following transfection, cells were treated with the indicated conditions for 24 hours and then harvested for analysis. Cells were harvested, stained, and analyzed as described above.” for “experiments.”
On the technique in general: A flow cytometer gives signals particle by particle.

The subject of experiment [3] is β-catenin. Nature of the experiment: Cytosolic and nuclear β-catenin fractionation. Format: cell-based, human. The following applies: A375, 24 hours. As to the method:
Cytosolic and Nuclear β-catenin Fractionation. Cells were plated in 100 mm dishes. 24 hours following plating, cells were treated with the indicated conditions for 24 hours. Cells were gently rinsed with PBS and harvested by scraping in 500 uL of hypotonic lysis buffer (50 mM HEPES pH 8.0, 1 mM EDTA, 1 mM DTT) containing protease and phosphatase inhibitors. Cells were swelled on ice for 30 minutes and then passed through a 27 gauge needle ten times and checked for complete lysis with a microscope. Lysates were centrifuged at 10,000×g for 20 minutes and supernatant was collected as the cytosolic fraction. Pelleted membranes were washed 5 times with hypotonic lysis buffer and then solubilized with solubilization buffer (50 mM Tris pH 8.0, 150 mM NaCl, 0.1% SDS, 0.5% sodium deoxycholate, 1% Triton X-100) containing protease and phosphatase inhibitors. After a 30 minute incubation on ice, lysates were centrifuged at 16,000×g for 20 minutes. The protein concentration of the cleared supernatant was determined by BCA analysis and an equal amount of protein and volume was then incubated with pre-washed Con A sepharose beads overnight at 4 degree C. Supernatant was collected as the nuclear fraction.

Experiment [4] deals with human A375 melanoma cells grown as xenografts. Briefly: Xenograft assay, A375:GFP or A375:WNT3A tumors in NSG mice. Format: in vivo, mouse. To be noted: 50 mg/kg PLX4720 oral gavage once daily. As to the method: Xenograft assays. NSG (NOD/SCID/IL2r-gamma (null)) mice were injected with 5×10^5 A375 cells stably expressing GFP or 5×10^5 A375 cells stably expressing WNT3A-IRES-GFP. Tumors were allowed to establish to approximately 100 mm^3, after which mice where tumor size-matched and allocated to five per treatment group (vehicle or PLX4720). WNT3A-IRES-GFP tumors grew slower and therefore the first day of treatment was day 14 while GFP expressing tumors were first treated on day 9. Treatment was by oral gavage once daily with 5% DMSO in 1% carboxymethyl cellulose or 50 mg/kg PLX4720 in 1% carboxymethyl cellulose (604 mM PLX4720 in DMSO was diluted 1:20 in 1% carboxymethylcellulose). Tumor size was determined by caliper measurements of tumor length and width every 3 to 4 days. Tumor volume was then calculated using the following formula: volume=(width)^2×length/2. Tumors were harvested 2 hours after the last dose and fixed in neutral-buffered formalin overnight at room temperature.

The mark [5] stands for this setting: A375, WNT3A and PLX4720 time course.

Take `CCCS(=O)(=O)Nc1ccc(F)c(C(=O)c2c[nH]c3ncc(Cl)cc23)c1F` [PLX4720, N-[3-[(5-Chloro-1H-pyrrolo[2,3-b]pyridin-3-yl)carbonyl]-2,4-difluorophenyl]-1-propanesulfonamide]: the AXIN2 transcript levels entry in experiment [1] is “did not exhibit any increase in AXIN2 transcript levels”. Besides, the “SYNERGISTIC WNT ACTIVATION WITH PLX4720?” value in the experiment on A375 is “YES”. In addition, the “steady-state levels of AXIN1” value in the experiment with AXIN1 (A375, Mel624, and COLO829, WNT3A plus 2 μM PLX4720 vs WNT3A alone, 24 hours) is recorded as “markedly reduced”; with AXIN1 (absence of rWnt3A), “slightly decreased”; with AXIN1 (presence of rWnt3A) it was “markedly diminished”. Moreover, the “time after which almost no detectable AXIN1 remained” value with AXIN1 (setting [5]) fell in the range of 16 to 20 h. Besides, the “time to rapid decrease in steady-state levels of AXIN1” value with AXIN1 (setting [5]) was 1 to 2 h. Further, the “steady-state AXIN1 levels” value in the experiment with AXIN1 (SKMEL5, SKMEL28 and A2058, WNT3A plus 2 μM PLX4720 vs WNT3A alone, 24 hours) is “did not significantly decrease”. Besides, the “cleaved caspase-3-positive cells” value with SKMEL28 (AXIN1/2 siRNA, L CM) stood at 31.47 ± 0.13; in the experiment on SKMEL28 (AXIN1/2 siRNA, W3A CM), 33.93 ± 4.1; in the experiment with SKMEL28 (Control siRNA, L CM), 6.02 ± 0.63; in the experiment on SKMEL28 (Control siRNA, W3A CM) it was 8.64 ± 1.9. Moreover, the “phosphorylation of β-catenin at GSK3β sites (Ser33/Ser37/Thr41)” value in the experiment with β-catenin [2] is reported as “decreased phosphorylation of β-catenin”. For the same compound, in the experiment on COLO829, the “SYNERGISTIC APOPTOSIS WITH WNT AND PLX4720?” value is “YES”. In addition, in the experiment on β-catenin [3], the “steady-state levels of cytosolic or nuclear β-catenin” value is recorded as “did not result in increased steady-state levels of cytosolic or nuclear β-catenin”. Also, the tumor growth result was “decreased tumor growth compared to drug vehicle” in experiment [4] (A375:GFP tumors) and “near complete suppression” in experiment [4] (A375:WNT3A tumors, over four weeks).
